Measured values reported in the METLIN SMRT retention time set (Domingo-Almenara et al. 2019).

Assay: gradient 5% acetonitrile 3 min, to 50% in 2 min, to 85% in 15 min, held 3 min, 100 µL/min
Settings: column: Zorbax Extend-C18 2.1 x 50 mm; eluents: water / acetonitrile, 0.1% formic acid
Outline: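 Each retention time is based on an adduct peak selected computationally and verified by manual inspection. Measurements used HPLC–quadrupole time-of-flight mass spectrometry in positive and negative ionization mode on mixtures of ~100 pure standards. Chromatography ran on a Zorbax Extend-C18 column (2.1 × 50 mm, 1.8 μm) at 100 μL/min with water and acetonitrile, each containing 0.1% formic acid, and dead and dwell volumes of 40 μL and 900 μL.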

| SMILES | RP-LC retention time |
| --- | --- |
| COc1ccc(OC)c(NC(=O)COc2cc(C(F)(F)F)c3c(C)nn(C)c3n2)c1 | 1100 s |
| COc1ccc(C2(C(=O)N3CCN(C(=O)N4C[C@H]5C[C@H](C4)[C@H]4CCCC(=O)N4C5)CC3)CC2)cc1 | 696 s |
| Cc1ccc(C(=O)NCCn2c(=O)n(Cc3ccc(F)cc3)c3cccnc32)s1 | 781 s |
| O=C(NC1CCCCC1)c1ccc2ncnc(N3CCCC3)c2c1 | 636 s |
| Cc1sc(NC(=O)C(F)(F)F)nc1-c1ccc2c(c1)NC(=O)CO2 | 763 s |
| COc1ccccc1-n1ccn(Cc2nc(-c3ccccc3C)no2)c(=O)c1=O | 850 s |
| C#CCn1c(=O)c2c(ncn2C)n(C)c1=O | 629 s |
| O=C(Cn1c(=O)c2cc(C3CC3)nn2c2ncccc21)Nc1ccc(F)c(F)c1 | 792 s |
| Cc1noc(-c2nn(C)c3c2CN(C(=O)NCc2ccccc2)CC3)n1 | 761 s |
| O=C(Nc1ccc2c(c1)C(=O)N1CCCCC1CCO2)c1ccco1 (centres undefined) | 692 s |
| O=C(Nc1cccnc1OC1CCNCC1)C1(c2ccccc2)CC1 | 646 s |
| O=C(COc1ccccc1F)N1CCN(Cc2nc(C3CC3)cs2)CC1 | 640 s |
| Cc1c(C(=O)NCCN2CCCCCC2)sc2ncnc(N3CCN(C)CC3)c12 | 551 s |
| O=C(NCC1CCN(C(=O)Oc2ccccc2)CC1)C(=O)Nc1ccon1 | 741 s |
| O=C(NCc1ccc(F)cc1F)C1CCN(C(=O)c2ncn3c2COC(c2ccccc2)C3)CC1 (centres undefined) | 784 s |
| Cc1cccc(NC(=O)N2CCc3nc(C)ncc3C2)c1 | 656 s |
| COc1ccc(-c2nnc(CC(=O)NC3CCCCCC3)o2)cc1 | 780 s |
| O=C(Nc1cc(C(F)(F)F)ccc1Cl)c1ccc(N2C(=O)CCC2=O)cc1 | 821 s |
| O=C(Nc1c(-c2ccc(F)cc2)nc2ccccn12)c1cccc(C(F)(F)F)c1 | 748 s |
| COc1ccc(NS(=O)(=O)c2ccc3c(c2)C(=O)N(C)c2ncccc2O3)cc1Cl | 918 s |
| CC(C)NC(=O)C1COC2(CCN(C(=O)c3cccc(Cl)c3)CC2)N1C(=O)c1ccccc1 (centres undefined) | 725 s |
| COC[C@@H]1CN(c2cnccn2)C[C@H]1C(=O)NCCn1ccnc1 | 498 s |
| N#Cc1nc(-c2cccs2)oc1N1CCN(C(=O)c2ccco2)CC1 | 789 s |
| COC(=O)c1c(C)c(C(=O)C(C)N(C(=O)c2ccccc2Cl)C(C)C)c(C)n1C (centres undefined) | 975 s |
| O=C(c1ccc(Br)o1)N1CCC(c2nnc(-c3ccco3)s2)CC1 | 765 s |
| CN1C(=O)c2cccnc2Sc2cc(NC(=O)c3ccccc3F)ccc21 | 758 s |
| Cc1ccccc1-c1nn2c(CSc3ccccc3)nnc2s1 | 1030 s |

| SMILES | RP-LC retention time |
| --- | --- |
| CC(=O)N1CCc2sc(C(=O)NCc3cccc(Br)c3)cc2C1 | 768 s |
| Cc1ccc(F)cc1NC(=O)Cn1nc(N(C)C)c2ccccc2c1=O | 860 s |
| CCOCN(C(=O)Cn1c(C(C)O)nc2ccccc21)c1c(C)cccc1CC (centres undefined) | 748 s |
| O=C(CCCc1ccccc1)NCC(=O)N1CCN(c2ccccn2)CC1 | 605 s |
| CCCN(CCC)S(=O)(=O)c1ccc(Br)c(OC)c1 | 1060 s |
| CC(C)CCNC(=O)c1ccc2ncnc(N3CCCC3)c2c1 | 635 s |
| Cn1ncc2c(N3CCSCC3)nc(C(=O)Nc3ccccc3)nc21 | 819 s |
| COCc1noc([C@@H]2CC(F)(F)CN2C(=O)C2CC=CC2)n1 | 777 s |
| Cc1cc(=O)n(CCOc2ccc(F)cc2)c(N2CCSCC2)n1 | 898 s |
| Cc1noc2nc(C)n(CC(=O)NCCc3ccccc3)c(=O)c12 | 752 s |
| CCOc1ccc(NC(=O)Cn2c(=O)cc(-c3nc(CC)no3)c3ccccc32)cc1 | 936 s |
| CCOC(=O)c1c(C)[nH]c(C(=O)N2CCC(CC(=O)N3CCCC3)CC2)c1C | 694 s |
| O=C1C2N=NN(c3ccc(F)cc3)C2C(=O)N1c1ccccc1 (centres undefined) | 914 s |
| COc1ccc(CNC(=O)C2CCN(c3cncnc3N3CCOCC3)CC2)cc1 | 651 s |
| O=C(NCc1cccc(Cl)c1)C1CCCN(c2nccnc2Oc2ccccc2)C1 (centres undefined) | 1020 s |
| CCCN(CCC)CCc1c[nH]c2ccc(C(N)=O)cc12 | 640 s |
| COCCN1C(=O)c2cccn2CC1CNS(=O)(=O)c1cccc2nsnc12 (centres undefined) | 677 s |
| Cn1c(NC(=O)c2ccc(N3C(=O)CCC3=O)cc2)cc(=O)n(C)c1=O | 565 s |
| CCCn1cnc2cc(CNC(=O)c3ccc(OC)c(OC)c3)ccc21 | 606 s |
| COCC(C)NS(=O)(=O)c1c(C)[nH]c(=O)[nH]c1=O (centres undefined) | 570 s |
| Cc1sc2cc(C(=O)N3CCN(c4ccccc4)CC3)[nH]c2c1CN1CCOCC1 | 710 s |
| O=C(N[C@H]1C[C@@H]2C[C@H]1N(S(=O)(=O)c1cc(F)cc(F)c1)C2)c1cccs1 | 720 s |
| O=C(NCc1ccc(Cl)cc1)c1ccc(NC(=O)C2CCC2)cc1N1CCOCC1 | 896 s |
| c1ccc(-n2ncc3c(NCc4ccc5c(c4)OCO5)ncnc32)cc1 | 877 s |
| Cc1ccc2c(c1)C(O)(CC(=O)c1cccc(Cl)c1)C(=O)N2 (centres undefined) | 785 s |
| O=C(NC1c2ccccc2-c2ccccc21)c1cccc([N+](=O)[O-])c1 | 961 s |
| Cc1sc(NC(=O)c2ccccc2Br)nc1-c1ccc2c(c1)NC(=O)C(C)O2 (centres undefined) | 943 s |

Other lines, results leading:

| RP-LC retention time | SMILES |
| --- | --- |
| 859 s | Cc1ccc(CNC(=O)CCCn2c(=O)c3sccc3n(CC(=O)N3CCCCC3C)c2=O)cc1 (centres undefined) |
| 664 s | CCCn1cc(C(=O)N2CCCC2)c2nn(-c3ccccc3)c(=O)c-2c1 |
| 1070 s | CCOC(=O)c1cc(S(=O)(=O)N2CCCC2C(=O)Nc2ccc(C(C)C)cc2)cn1C (centres undefined) |
| 1090 s | Cc1cccc(OCc2nc(-c3ccc(NS(=O)(=O)c4cccs4)cc3)no2)c1 |
| 704 s | O=C(NCCn1nnc2cc(C(=O)N3CCCC3)ccc21)Nc1ccc(Br)cc1 |
| 694 s | Cc1oc(-c2ccc(C(=O)NCCN(C)C)cc2)nc1CN1CCc2ccccc21 |
| 616 s | COc1cccc(Sc2ccc(N3CCC(C(=O)N4CCN(c5ccccn5)CC4)CC3)nn2)c1 |
| 1060 s | COc1ccc(Cn2c(=O)c3sccc3n(Cc3nc(-c4ccc(C)cc4)no3)c2=O)cc1 |
| 625 s | CCOC(=O)CNC(=O)CSc1ccc2nnc(-c3cccc(F)c3)n2n1 |
| 663 s | Cc1nccn1Cc1nc(-c2ccc(Br)cc2)no1 |
| 650 s | CCC(C)NC(=O)N1CCN(c2cc(-c3cccc(F)c3)ncn2)CC1 (centres undefined) |
| 708 s | CCN1CCN(S(=O)(=O)c2c(C)nn(-c3ccc(-c4ccc(C)cc4)nn3)c2C)CC1 |
| 580 s | COc1ccc(CN2CC[C@@H]3CN(S(C)(=O)=O)[C@@H]3C2)c(OC)c1 |
| 802 s | Cc1ccc(Cc2nnc(NC(=O)c3cc(C)n(C(C)C)n3)o2)cc1 |
| 917 s | COc1ccc(-c2nnc(-c3cc(S(=O)(=O)NCC4CCCO4)ccc3Cl)o2)cc1 (centres undefined) |
| 629 s | CCC(C(=O)NCCN1CCN(C)CC1)n1nc(C)c2sc3ccccc3c2c1=O (centres undefined) |
| 924 s | CCOc1ccc(-c2noc(CN3N=NC4C(=O)N(c5ccc(OC)cc5)C(=O)C43)n2)cc1OC (centres undefined) |
| 840 s | COC(=O)c1ccc(CSc2nnc(C(C)C)c3cnn(-c4ccc(F)cc4)c23)o1 |

| RP-LC retention time | SMILES |
| --- | --- |
| 700 s | COc1cccc2c(C)nc(NC3=NCN(Cc4ccc5c(c4)OCO5)CN3)nc12 |
| 880 s | CCn1c(=O)n(Cc2ccccn2)c(=O)c2cnc(-c3ccc(OC)cc3)nc21 |
| 652 s | COc1ccc(-c2cc(N3CCN(C(=O)Nc4ccc5c(c4)OCCO5)CC3)ncn2)cc1 |
| 649 s | CCSc1ccccc1C(=O)N1CCN(c2ccc(-c3ccccn3)nn2)CC1 |
| 739 s | Cc1ccc(Cl)c(NS(=O)(=O)c2cc(-c3[nH]ncc3C(=O)N3CCCC3)oc2C)c1 |
| 695 s | Cn1nc(N2CCC(NC(=O)c3nccc4ccccc34)C2)ccc1=O (centres undefined) |
| 760 s | Cc1ccc(CNC(=O)N2CCC(OC3CCN(S(C)(=O)=O)CC3)CC2)cc1 |
| 650 s | CCOc1ccc(S(=O)(=O)N2CCCC(C(=O)NCc3cccnc3)C2)cc1 (centres undefined) |
| 655 s | CCCNC(=O)C1CCCN(c2ccc(SCC(=O)Nc3ccccc3C)nn2)C1 (centres undefined) |
| 643 s | Cc1nn(C)c(C)c1S(=O)(=O)NCCc1noc(-c2cccnc2)n1 |
| 1090 s | Cc1cccc(CN2N=C(C(=O)N3CCC(C)CC3)S(=O)(=O)c3ccccc32)c1 |
| 666 s | COc1ccc(C)cc1NC(=O)C1CCN(S(=O)(=O)c2cn(C)cn2)CC1 |
| 836 s | CCn1nccc1C(=O)N1CCCC1c1ccccc1C (centres undefined) |
| 586 s | CCC(C)NC(=O)N1CCN(Cc2nc3cc(C(=O)N(C)C)ccc3n2C)CC1 (centres undefined) |
| 582 s | O=C(NCCCN1CCCCC1)c1cc2n(n1)CCCN(Cc1ccc(Cl)cc1)C2=O |
| 1020 s | CC(C)n1cc(C2=CCN(S(=O)(=O)Cc3ccccc3)CC2)c2cccnc21 |
| 913 s | CCOc1ccc(S(=O)(=O)NCc2c(-c3ccccc3)nc3sc(C)nn23)cc1 |
